PMC10511495, “Dermato-cosmeceutical properties of Pseudobombax ellipticum (Kunth) Dugand: Chemical profiling, in vitro and in silico studies” (Saudi Pharmaceutical Journal : SPJ, 2023)

Columns and labels:
[1] = target: T1, Porcine pancreatic elastase (Sus scrofa, UniProt P00772); assay: chromogenic peptide hydrolysis, absorbance at […] nm; format: biochemical; conditions: 0.8 mM N-succinyl-Ala-Ala-Ala-p-nitroanilide; 15 min preincubation
T1 construct: gene CELA1; native pancreatic enzyme preparation; docking used another elastase (Zn metalloprotease, MMP12)
T1 sequence (P00772 27-266): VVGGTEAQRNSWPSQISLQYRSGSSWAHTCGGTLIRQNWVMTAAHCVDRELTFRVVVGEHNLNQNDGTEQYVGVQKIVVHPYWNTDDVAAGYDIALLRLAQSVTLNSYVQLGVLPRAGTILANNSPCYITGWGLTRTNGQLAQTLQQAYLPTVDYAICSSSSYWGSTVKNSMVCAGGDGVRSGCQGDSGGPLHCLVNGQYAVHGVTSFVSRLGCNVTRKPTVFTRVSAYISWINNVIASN

[2] = target: T2, Collagenase from Clostridium histolyticum (ChC); assay: FALGPA hydrolysis, absorbance at […] nm; format: biochemical, Hathewaya histolytica; conditions: 2 mM FALGPA solution; 50 mM Tricine, 400 mM NaCl, 10 mM CaCl2, pH 7.5; 15 min preincubation
T2 construct: gene colG; docking used another collagenase (MMP)

Parameter / Elastase [1]	SMILES	Parameter / Collagenase [2]
21.60 ± 0.9 µg/mL	O=c1cc(CO)occ1O [Kojic acid]	–
–	O=c1c(O)c(-c2ccc(O)c(O)c2)oc2cc(O)cc(O)c12 [Quercetin]	24.83 ± 1.8 µg/mL
